{
  "source": "patent US20170168056A1",
  "about": "“METHODS AND COMPOSITIONS FOR DETECTING AND MODULATING CANCER CELLS” (Massachusetts Institute of Technology, priority 2015, published 2017)",
  "type_in_all_cases": "cell-based, human",
  "key": {"T47D cells": {"test_system": "T47D cells", "experiment": "Cell viability of T47D cells expressing ShCtrl or ShMENA after paclitaxel", "details": "T47D ShMENA vs ShCtrl, 72 hours", "method": "Cell Culture. MDA-MB-231 cells were purchased directly from the ATCC in June 2012, where cell lines are authenticated by short tandem repeat profiling. These cells were not reauthenticated by our lab and were cultured in DMEM with 10% FBS (Hyclone). Cell line generation and FACS were performed as previously described (32). […] SUM159 cells were obtained from Joan Brugge's lab at Harvard Medical School (January 2011) and were not reauthenticated in our lab. SUM159 cells were cultured according to the ATCC protocols. T47D cells were purchased at ATCC, where cell lines are authenticated by short tandem repeat profiling. They were cultured according to the manufacturer's protocol, and not reauthenticated in our lab. […]\nMENA and MENA^INV are associated with increased survival during paclitaxel treatment in vitro. […] MENA and MENA^INV were determined to be widely expressed in all main breast cancer subtypes, as measured by mRNA from TCGA samples, as well as at the protein level by immunohistochemistry (FIGS. 28A, 28B, 28C), with slightly higher expression in patients with Her2+ breast cancer. […] Under the conditions we used, MENA11a co-migrates with the 80 kDa MENA, thus the intensity of the measured the 80 kDa MENA, detected with an antibody known to recognize all MENA isoforms, represents the total amount of 80 kDa MENA plus MENA11a in the cell lines that express both isoforms. […]"}, "MDA-MB-231 cells": {"test_system": "MDA-MB-231 cells", "experiment": "In vitro imaging of cell velocity on collagen", "details": "231-Control, 231-MENA, 231-MENA^INV; paclitaxel 1, 10 or 100 nM", "method": "In vitro imaging. Glass bottom dishes were coated with Co11agen at 0.1 mg/mL diluted in PBS for 1 hour at 37° C. Cells expressing different MENA isoform were treated with paclitaxel at 1, 10 or 100 nM or vehicle and immediately plated on the glass bottom dishes. 30 minutes later, cells were imaged overnight, with one image acquired every 10 minutes for 16 hours on a Nikon spinning disk with a 20× objective and an Andor/NeoZyla camera. Individual cells were manually tracked using ImageJ and Manual Tracking plug-in. Data were analyzed using the chemotaxis tool developed by IBIDI. For analysis of time spent in cell division, the time between when the mother cell first rounds up, to when both daughter cells have spread out on substrate was measured. The percentage of successful cell divisions was quantified by counting the number of cell divisions that lead to two surviving daughter cells. Data are pooled from at least 50 cells tracked in three independent experiments.\nMENA and MENA^INV drive increased cell motility and metastasis during tumor progression. Therefore, whether MENA isoform expression impacts cell migration and dissemination after paclitaxel treatment was examined."}, "microtubules (MT)": {"test_system": "microtubules (MT)", "experiment": "Immunofluorescence ratio of Glu-MT (stable) to Tyr-MT (dynamic)", "method": "Immunofluorescence. Glass bottom dishes (Mattek) were coated with Collagen at 0.1 mg/mL diluted in PBS and 50 μg/mL FN for 1 hour at 37° C. Cells were plated for 1 hour, and then treated with paclitaxel alone or in combination with MEKi for 24 hours. Cells were fixed for 20 minutes in 4% paraformaldehyde in PHEM buffer with 0.1% Gluteraldehyde, and then quenched with sodium borohydrate for 5 minutes. Cells were blocked with 2% BSA in TBS-0.1%TritonX-100 for 30 minutes, and incubated with primary antibodies and then secondary antibodies for 1 hour each, at room temperature. Z series of images were taken on an Applied Precision DeltaVision microscope using Softworx acquisition, an Olympus 60×1.4 NA plan apo objective and a Photometrics CoolSNAP HQ camera. Images were deconvolved using Deltavision Softworx software and objective specific point spread function. Images were analyzed with ImageJ, where the whole cell intensity levels of Tyr- or Glu-MT was measured. Images are pooled from at least 3 independent experiments.\nPaclitaxel promotes cell death by increasing the stability of MTs, and pathways driving increased MT dynamics are known to promote resistance to taxanes. Therefore, MT structure and dynamics in MENA isoform expressing cells was examined during paclitaxel treatment. […] Post-translational modification of MTs can regulate their dynamics, and antibodies that detect such modifications can be used to infer the relative dynamics of MT populations; in particular, MT tyrosination indicates a dynamic MT state, while de-tyrosination of MTs is associated with increased stability. The relative abundance of stable (Glu-MT) vs. dynamic (Tyr-MT) MTs was measured in individual cells by immunofluorescence with anti-Glu-MT and anti-Tyr-MT antibodies (FIGS. 37A, 37B).\nThe MAPK signaling cascade is among the key pathways known to interact with MTs. Both ERK1/2 interact with MTs; MT stabilization by paclitaxel increases ERK phosphorylation and, in turn, ERK pathway activation increases MT dynamics."}},
  "data": [
    {"smiles": "CC(=O)O[C@H]1C(=O)[C@@]2(C)[C@H]([C@H](OC(=O)c3ccccc3)[C@]3(O)C[C@H](OC(=O)[C@H](O)[C@@H](NC(=O)c4ccccc4)c4ccccc4)C(C)=C1C3(C)C)[C@]1(OC(C)=O)CO[C@@H]1C[C@@H]2O", "note": "[paclitaxel]", "values": [
      {"measurement": "sensitivity to paclitaxel after reducing all MENA isoform levels", "setting": "T47D cells", "result": "more sensitive to paclitaxel"},
      {"measurement": "cell velocity in vitro", "setting": "MDA-MB-231 cells", "result": "decreased velocity"},
      {"measurement": "relative ratio of stable (Glu-MT) to dynamic (Tyr-MT) MTs", "setting": "microtubules (MT); 231-Control cells, 10 nM paclitaxel 24 hours", "result": "significant increase"},
      {"measurement": "relative levels of stable to dynamic MTs", "setting": "microtubules (MT); 231-MENA and 231-MENA^INV cells, 10 nM paclitaxel 24 hours", "result": "no change"},
      {"measurement": "stable MTs relative to dynamic MTs, either drug alone", "setting": "microtubules (MT); 231-MENA^INV cells, single drug, 24 hours", "result": "had no effect"}
    ]}
  ]
}
